Experimental data: patent US20110281852A1 (priority 2010, published 2011)

How the values were obtained:
GATA-2 [1] = experiment: Immunoblot, GATA-2 protein in HWP; type: cell-based, human; details: day 15
Method: Immunoblot Analysis: Protein expression of GATA-2, GATA-3, PPARγ and C/EBPα were assessed by Western Blot. Total proteins were isolated from HWP treated with compounds or vehicles on day 15. The cells were washed twice with PBS, lysed in a lysis buffer containing HEPES-Tx-PI buffer: […] HEPES, 5 mM EDTA, 350 mM Sucrose, 1 μg/ml leupeptin, 1 μg/ml pepstatin, 1% Triton-X, 1 mM PMSF), processed with a 25G needle and centrifuged at 10,000 rpm for 5 min. Protein concentration was determined using the Micro BCA Protein Assay Kit (Fisher Scientific, Pittsburgh, Pa., USA) according to the manufacturers instructions. 20 μg proteins were loaded and separated by electrophoresis using the BioRad Electrophoretic System (60 V for 1 hour followed by 90 V for 5 hours). The proteins were then transferred to nitrocellulose membranes at 35 V overnight. The membrane was blocked for 1 hour at room temperature in 5% nonfat milk in Tris-buffered saline (TBS), then washed with Tween-20-TBS (TTBS, 0.1% Tween-20) three times (15 min, 5 min, 5 min), followed by incubation with primary antibodies human GATA-2, GATA-3, PPARγ, C/EBPα and β-actin (dilution 1:200) (all antibodies were purchased from Santa Cruz Biotechnology, Santa Cruz, Calif., USA) at room temperature for 2 hours. The membrane was rinsed three times (15 min, 5 min, 5 min), then incubated at room temperature for 1 hour with Horseradish peroxidase-conjugated second antibody (1:10,000). The membrane was then incubated in ECL reagent (GE Healthcare, Piscataway, N.J., USA) for 1 minute. Protein was visualized using the UVP image analysis system (UVP, Upland, Calif., USA).

in vitro = details: mouse, 3T3-L1 cells during proliferation
Method: Culture medium was removed at 24, 48 and 72 hrs and MTT (0.5 mg/ml in pure DMEM, 50 μl/well) was added.

3T3-L1 cells [2] = experiment: Quantitative Oil Red O staining, 3T3-L1 adipocyte differentiation (Example 1); type: cell-based, mouse; details: for reduction in fat droplets: 6 days post differentiation induction
Method: Oil-Red-O Staining: Oil-Red-O Staining was performed as previously described (Liu et al. 2004). Images were obtained using an Olympus IX70 inverted microscope (Tokyo, Japan). Quantification Oil-Red-O Staining of cells was carried out as described (Furuyashiki et al., Biosci Biotechnol Biochem (2004) 68:[…]).
Standard Oil Red O staining was then used to examine the extent of differentiation process at days 2, 4, 6, and 8 using microscopy. […] (FIG. 4).

3T3-L1 cells [3] = experiment: MTT assay, 3T3-L1 viability during differentiation with clozapine, risperidone, berberine (Example 2); type: cell-based, mouse; details: day 8
Method: Cell culture and drug treatment: 3T3-L1 cells (American Type Culture Collection, Manassas, Va., USA) were cultured at 37° C. in a humidified 5% CO2 atmosphere and grown in a DMEM (Sigma-Aldrich, St. Louis, Mo. USA) supplemented with 10% Fetal Bovine Serum (FBS, Atlanta Biologicals Corp., Lawrenceville, Ga., USA), 100 units/ml penicillin and 100 μg/ml streptomycin. Differentiation was induced by addition of 167 nM insulin, 520 μM isobutylmethylxanthine (IBMX), and 1 μM dexamethasone for 2 days and then only with 167 nM insulin for 6 days. Detailed protocol was described as our previous report (Hu et al., Phytomedicine (2009) 16(9):864-873).
Medium was removed after differentiation and treatment for 8 days, MTT (Methylthiazolyldiphenyl—tetrazolium bromide 0.5 mg/ml, 50 μl/well) was added.

PPARγ = experiment: Immunoblotting, PPARγ protein in 3T3-L1; type: cell-based, mouse; details: 8 days
Method: Immunoblotting: Protein expression of SREBP-1, PPARγ, and C/EBPα relative to 3-actin was assessed by Western Blot. Total proteins were isolated from 3T3-L1 cells treated with compounds or vehicles for 8 days. The cells were washed twice with PBS, lysed in a HEPES-Tx-PI buffer (910 mM HEPES, 5 mM EDTA, 350 mM Sucrose, 1 μg/ml leupeptin, 1 μg/ml pepstatin, 1% Triton-X, 1 mM PMSF), processed with 25G needles and centrifuged at 12,000 rpm for 5 min. Protein concentration was determined using the Micro BCA Protein Assay Kit (Fisher Scientific, Pittsburgh, Pa., USA) following the manufacturers instructions. 25 μg proteins were loaded and separated by electrophoresis using the BioRad Electrophoretic System (65 V for 7 hour). The proteins were then transferred to nitrocellulose membranes at 40 V overnight. The membrane was blocked for 1 hour at room temperature in 5% nonfat milk in Tris-buffered saline (TBS), then washed with Tween-20-TBS (TTBS, 0.1% Tween-20) three times (15 min, 5 min, 5 min), followed by incubation with primary antibodies SREBP-1 (dilution 1:200), PPARγ (dilution 1:200), C/EBPα (dilution 1:200) (all purchased from Santa Cruz Biotechnology, Santa Cruz, Calif., USA) and 3-actin (dilution 1:1000, Sigma-Aldrich, St. Louis, Mo., USA) at room temperature for 2 hours. […]

GATA-2 [4] = experiment: Real-Time RT-PCR, GATA-2 mRNA in epididymal fat of FD mice; type: in vivo, mouse
Method: RNA and protein purification and quantification from epididymal fat tissues: RNA and protein was isolated from 60 mg of epididymal fat tissues with Trizol (Invitrogen, Carlsbad, Calif., USA) following the protocol recommended by the manufacturers. RNA was dissolved in pure water and quantified at 260/280 nm, and sample integrity was checked by 1.5% agarose gel electrophoresis. Protein concentration was determined using the Micro BCA Protein Assay Kit (Fisher Scientific, Pittsburgh, Pa., USA) according to the manufacturer's instructions.
Quantitative Real-Time RT-PCR: Real-Time reverse transcriptase polymerase chain reaction (RT-PCR) analysis was used to measure mRNA expression of genes PPARγ, C/EBPα, GATA-2 and GATA-3 in the control of β-actin. Total RNA (0.8 μg) from each sample was used for a reverse transcription reaction using the TaqMan Reverse Transcription Reagents (Applied Biosystems, Foster City, Calif., USA) following the manufacturer's instructions. PCR was done using the SYBR green Master Mix (Applied Biosystems, Foster City, Calif., USA) following the manufacturer's instructions. The cycling conditions of amplification were as follows: an initial step of denaturation at 95° C. for 10 min, 40 cycles of denaturation at 95° C. for 30 s, annealing at 55° C. for 30 s, and elongation at 72° C. for 30 s. Real-Time PCR was performed using Mx3000P Real-Time Thermocyclers (Stratagene, La Jolla, Calif., USA). The relative mRNA levels of these genes were calculated by 2-delta delta CT method and normalized with control-treated groups.

evodiamine
GATA-2 protein expression relative to β-actin, normalized with controls (GATA-2 [1]; 1 μM): 2.44 fold | GATA-2 protein expression relative to β-actin, normalized with controls (GATA-2 [1]; 2 μM): 4.81 fold | GATA-2 protein expression relative to β-actin, normalized with controls (GATA-2 [1]; 4 μM): 4.92 fold

COc1ccc2cc3[n+](cc2c1OC)CCc1cc2c(cc1-3)OCO2.[Cl-] [berberine, Berberine (Chloride Form)]
cytotoxicity at 1 day, 8 μM (in vitro): 13.2% | cytotoxicity at 2 days, 8 μM (in vitro): 13.8% | cytotoxicity at 3 days, 8 μM (in vitro): 18.6% | reduction in fat droplets (3T3-L1 cells [2]; 1 μM): 30.6% | reduction in fat droplets (3T3-L1 cells [2]; 2 μM): 35.8% | reduction in fat droplets (3T3-L1 cells [2]; 4 μM): 40% | reduction in fat droplets (3T3-L1 cells [2]; 8 μM): 48.6% | inhibition at 1 µM (3T3-L1 cells [2]; Mus musculus, 3T3-L1, 192 h, 1 μM, 8 days, fully differentiated cells, read-out: inhibition of fat amount): 59.4% | inhibition at 2 µM (3T3-L1 cells [2]; Mus musculus, 3T3-L1, 192 h, 2 μM, 8 days, fully differentiated cells, read-out: inhibition of fat amount): 58.4% | inhibition at 4 µM (3T3-L1 cells [2]; Mus musculus, 3T3-L1, 192 h, 4 μM, 8 days, fully differentiated cells, read-out: inhibition of fat amount): 71.8% | inhibition at 8 µM (3T3-L1 cells [2]; Mus musculus, 3T3-L1, 192 h, 8 μM, 8 days, fully differentiated cells, read-out: inhibition of fat amount): 72.6% | decrease of cell viability vs no berberine treated group (3T3-L1 cells [3]; 8 μM berberine combined with 0 μM clozapine): 22.3% | decrease of cell viability vs no berberine treated group (3T3-L1 cells [3]; 8 μM berberine combined with 0 μM risperidone): 17.8% | decrease of cell viability vs no berberine treated group (3T3-L1 cells [3]; 8 μM berberine combined with 15 μM clozapine): 16.5% | decrease of cell viability vs no berberine treated group (3T3-L1 cells [3]; 8 μM berberine combined with 25 μM risperidone): 19.5% | decrease of cell viability vs no berberine treated group (3T3-L1 cells [3]; 8 μM berberine combined with 30 μM clozapine): 15% | decrease of cell viability vs no berberine treated group (3T3-L1 cells [3]; 8 μM berberine combined with 50 μM risperidone): 20.2% | decrease of PPARγ protein expression vs clozapine treated group (PPARγ; 8 μM berberine + 15 μM clozapine): 76% | decrease of PPARγ protein expression vs risperidone treated group (PPARγ; 8 μM berberine + 50 μM risperidone): 85.7% | GATA-2 mRNA expression increased to (GATA-2 [4]; 0.75 mg/kg/day): 2.7 fold | GATA-2 mRNA expression increased to (GATA-2 [4]; 1.5 mg/kg/day): 3.4 fold | GATA-2 mRNA expression increased to (GATA-2 [4]; 3 mg/kg/day): 3.7 fold
